{"source": "patent US20230391868A1", "about": "“COMPOSITIONS FOR AND METHODS OF TREATING CANCER” (The George Washington University, priority 2022, published 2023)", "key": {"SIRPα": {"system": "SIRPα", "assay": "Cell surface SIRPα expression by flow cytometry", "type": "cell-based, mouse", "conditions": "A31A7 macrophages and BMDMs; flow cytometry (FIG. 2C)", "procedure": "Cell surface expression of CD47 in melanoma cells was evaluated using PE anti-mouse CD47 (clone miap301, […], Biolegend), PE anti-human CD47 (clone CC2C6, 323108, Biolegend), and their respective isotype controls (400508, 400113, respectively, Biolegend). SIRPα was evaluated using APC anti-mouse CD172a (SIRPα) antibody (clone P84, 144014, Biolegend) or APC anti-human CD172a/b (SIRPα/β) antibody (clone SE5A5, 323810, Biolegend) and their respective isotype controls (400411, Biolegend)."}, "SM1 melanoma tumors": {"system": "SM1 melanoma tumors", "assay": "SM1 melanoma tumor growth in vivo", "set-up": "species or system mouse", "conditions": "SM1-bearing C57/Bl6 mice, NextA 20 mg/kg intraperitoneally, anti-CD47 100 μg intratumorally, every other day, vs vehicle control", "procedure": "Animal experiments were performed in accordance with protocol A354 approved by the Institutional Care and Use Committee (IACUC) at The George Washington University. Female C57BL/6 mice (4-6 weeks old) were purchased from Charles River Laboratories (Wilmington, Massachusetts, USA). Mice were injected subcutaneously in their right flank with 10^6 in vivo passaged SM1 melanoma cells suspended in 100 μL of PBS (Corning, 21-040-CV) at day 0. Cages were randomly assigned to different treatment groups, and mice were treated intraperitoneally with 100 μL of vehicle control or NextA at 20 mg/kg every other day when tumors became palpable, which was a week after tumor implantation.\nSix days after the first NextA treatment, mice were also treated intratumorally with 100 μg of αCD47 every two days (clone miap301, BE0270, BioXCell, Lebanon, NH, USA) until the end of the study. Tumor measurements were taken every other day using caliper measurements and calculated using the formula L×W^2/2. All animals were routinely monitored for early signs of toxicity. […]\nFirst, C57/Bl6 mice were inoculated with SM1 melanoma cells (n=15 mice per group). […] The concentrations of NextA and anti-CD47 were determined by performing drug and antibody titrations. Tumor growth was monitored every other day from when the tumors became palpable until the experimental endpoint."}, "B16 melanoma cells": {"system": "B16 melanoma cells", "assay": "Cd47 mRNA upon IFNγ stimulation in B16 cells", "type": "cell-based, mouse", "conditions": "IFNγ for 12 hours", "procedure": "qRT-PCR: Total RNA was extracted from cells using the Trizol reagent according to manufacturer's instructions (ThermoFisher Scientific, 15596018). Samples were then processed immediately or stored at −80° C. RNA was quantified using a NanoDrop One Spectrophotometer (ThermoFisher Scientific). The 260/280 ratios were routinely over 1.8. Sample cDNA was produced using the iScript cDNA synthesis kit (Bio-Rad, 1708891). Target mRNA was quantified using MyIQ single-color real-time PCR detection system from Bio-Rad (Bio-Rad, Hercules, CA) and iQ SYBR green Supermix (Bio-Rad, 1708882). The following primers were synthesized by Invitrogen (Waltham, MA) with sequences designed by Origene (Rockville, MD): mouse R-actin (MP200232), mouse Nos2 (MP208933), mouse MRC1 (MP207800), human R-actin (HP204660), human IL-1β (HP200544), human MRC1 (HP206121), human NOS2 (HP200591), human CD209 (HP214086), mouse SIRPα (MP215450), mouse LRP1 (MP207604), human LRP1 (HP206040), mouse MFGE8 (MP208190), human MFGE8 (HP225757), mouse CD36 (MP201923), human CD36 (HP200058), and mouse CD47 (MP201932). Primers for mouse ARG-1 (PPM31770C) and human SIRPα (QT01031051) were purchased from Qiagen (Hilden, Germany). […] Quantification is expressed in arbitrary units and target mRNA levels were normalized to R-actin expression.\nAlthough the mechanism by which IFNγ drives CD47 upregulation is unclear, IFNγ expression correlates to CD47 expression in skin cutaneous melanoma (Ye Z H, et al. (2021) Transl. Oncol. 14:101162). The kinetics of Cd47 mRNA in SM1 and B16 cells upon IFNγ stimulation (100 ng/mL) were evaluated and these mouse melanoma models were determined to have different kinetics (FIG. 9A-FIG. 9B). It was determined that 12 hours was a time point for both models to sustain the IFNγ-mediated upregulation. In FIG. 9B, the role of HDAC6 inhibitors NextA and Tubastatin A in abrogating Cd47 upregulation upon stimulation with IFNγ for 12 hours was evaluated."}, "mouse SIRPα promoter": {"system": "mouse SIRPα promoter", "assay": "SIRPα-luc reporter luciferase assay in A31A7 macrophages", "type": "cell-based", "conditions": "10 μM of NextA; untreated transfected cells 32.2-fold (FIG. 2B)", "procedure": "The mouse CD47 or SIRPα promoters were cloned into a promoterless pGL4.20[luc2/puro] vector using Genentech's cloning services (San Francisco, CA, USA). Vectors were transfected into SM1 and B16 melanoma cells using Lipofectamine 3000 (L3000008, ThermoFisher) and transfected cells were selected using puromycin. A31A7 macrophages were transiently transfected using jetOPTIMUS DNA transfection reagent (Polyplus, NY, USA). Luminescence was measured using the Luciferase Assay System (E4550, Promega) in a SpectraMax i3× Multi-Mode Microplate Reader (Molecular Devices).\nTo investigate whether HDAC6 controlled SIRPα expression at the transcriptional level, the mouse SIRPα promoter was cloned into a promoterless pGL4.20 [luc2/puro] vector to create a SIRPα-Luc reporter plasmid. e Nex, A31A7 macrophages were transiently transfected in the absence or presence of 10 μM of NextA and luminescence was evaluated. A31A7 cells were successfully transfected with the SIRPα-luciferase reporter vector as evidenced by a 32.2-fold increase in relative luminescence units (RLU) compared to untransfected cells (FIG. 2B)."}}, "data": [{"compound": "CCCCN(Cc1ccc(C(=O)NO)cc1)C(=O)Nc1ccccc1", "note": "[NextA, Nexturastat A]", "values": [{"measurement": "SIRPα expression on the cell surface", "setting": "SIRPα", "result": "significantly decreased"}, {"measurement": "tumor growth", "setting": "SM1 melanoma tumors", "result": "moderately decreased tumor growth"}, {"measurement": "tumor growth", "setting": "SM1 melanoma tumors; listed as Nexturastat A", "result": "enhanced the antitumor efficacy of anti-CD47"}, {"measurement": "IFNγ-driven Cd47 upregulation at the transcriptional level", "setting": "B16 melanoma cells", "result": "repressed these effects"}, {"measurement": "increase in relative luminescence units (RLU) compared to untransfected cells", "setting": "mouse SIRPα promoter", "result": 7.7, "unit": "fold"}]}]}
